Results published in patent US20220089575A1, “FARNESOID X RECEPTOR AGONISTS AND USES THEREOF” (Metacrine, Inc., priority 2017, published 2022).

Target: T1, hFXR (Homo sapiens, UniProt Q96RI1)
T1 construct: expressed in transfected cells; host or cells: CV-1 cells
T1 sequence (Q96RI1 1-486): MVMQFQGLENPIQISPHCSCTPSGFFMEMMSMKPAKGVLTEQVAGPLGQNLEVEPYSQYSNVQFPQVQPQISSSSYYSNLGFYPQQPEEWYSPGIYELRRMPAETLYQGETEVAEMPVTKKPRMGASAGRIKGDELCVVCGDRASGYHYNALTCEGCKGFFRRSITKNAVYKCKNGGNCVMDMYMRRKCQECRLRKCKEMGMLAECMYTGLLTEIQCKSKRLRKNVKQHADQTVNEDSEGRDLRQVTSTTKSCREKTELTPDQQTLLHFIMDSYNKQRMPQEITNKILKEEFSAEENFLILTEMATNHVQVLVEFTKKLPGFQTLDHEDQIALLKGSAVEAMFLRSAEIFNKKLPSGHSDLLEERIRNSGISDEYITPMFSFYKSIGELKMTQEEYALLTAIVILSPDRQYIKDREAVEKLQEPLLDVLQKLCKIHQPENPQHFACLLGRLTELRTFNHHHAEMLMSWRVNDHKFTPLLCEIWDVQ
T1 sequence (P19793 1-462 partner): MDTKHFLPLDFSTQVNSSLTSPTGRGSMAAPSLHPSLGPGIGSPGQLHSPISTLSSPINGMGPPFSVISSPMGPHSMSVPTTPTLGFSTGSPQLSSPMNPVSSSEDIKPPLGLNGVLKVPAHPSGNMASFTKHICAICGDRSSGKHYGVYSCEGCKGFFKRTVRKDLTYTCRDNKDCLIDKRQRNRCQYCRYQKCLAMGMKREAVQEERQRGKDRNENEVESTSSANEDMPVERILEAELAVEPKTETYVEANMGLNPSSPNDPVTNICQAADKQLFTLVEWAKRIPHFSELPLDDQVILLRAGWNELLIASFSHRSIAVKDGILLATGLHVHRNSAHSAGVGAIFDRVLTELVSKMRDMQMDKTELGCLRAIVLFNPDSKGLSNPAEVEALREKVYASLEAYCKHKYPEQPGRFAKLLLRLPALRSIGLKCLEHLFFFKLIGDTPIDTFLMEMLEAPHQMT
Assay: In Vitro FXR Assay (TK): TK-ECRE-luc reporter in transfected CV-1 cells
Format: cell-based
Conditions: 18 hrs, luminescence, maximum efficacy of <25% of the Fexarmine control classified as '+'
Outline: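 Reporter transactivation by hFXR was measured in CV-1 cells carrying hRXR and a TK-ECRE-luc construct, with compound treatment for 18 h before lysis and luminescence detection.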

EC50, ≤ 0.25 µM:
COc1ncc(-c2cccc(N(C[C@H]3CC[C@H](c4ccc(OC)c(C)c4)CC3)C(=O)[C@H]3CC[C@H](CNC(C)=O)CC3)c2)s1 [Compound 25.06, trans-4-(Acetamidomethyl)-N-((trans-4-(4-methoxy-3-methylphenyl)cyclohexyl)methyl)-N-(3-(2-methoxythiazol-5-yl)phenyl)cyclohexanecarboxamide]
COC(=O)NC[C@H]1CC[C@H](C(=O)N(C[C@H]2CC[C@H](c3ccc(OC)c(C)c3)CC2)c2cccc(-c3cnc(OC)s3)c2)CC1 [Compound 25.07, Methyl ((trans-4-(((trans-4-(4-methoxy-3-methylphenyl)cyclohexyl)methyl)(3-(2-methoxythiazol-5-yl)phenyl)carbamoyl)cyclohexyl)methyl)carbamate]
COc1ncc(-c2cccc(N(C[C@H]3CC[C@H](c4ccc(OC)c(C)c4)CC3)C(=O)[C@H]3CC[C@H](CNS(C)(=O)=O)CC3)c2)s1 [Compound 25.08, trans-N-((trans-4-(4-Methoxy-3-methylphenyl)cyclohexyl)methyl)-N-(3-(2-methoxythiazol-5-yl)phenyl)-4-(methylsulfonamidomethyl) cyclohexanecarboxamide]
COc1ccc([C@H]2CC[C@H](CN(c3cccc(-c4cnc(C5CC5)s4)c3)C(=O)[C@H]3CC[C@H](NC(C)=O)CC3)CC2)cc1C [Compound 25.09, trans-4-Acetamido-N-(3-(2-cyclopropylthiazol-5-yl)phenyl)-N-((trans-4-(4-methoxy-3-methylphenyl)cyclohexyl)methyl) cyclohexanecarboxamide]
COc1ccc([C@H]2CC[C@H](CN(c3cccc(-c4cnc(C5CC5)s4)c3)C(=O)[C@H]3CC[C@H](N(C)C(C)=O)CC3)CC2)cc1C [Compound 25.10, trans-N-(3-(2-Cyclopropylthiazol-5-yl)phenyl)-N-((trans-4-(4-methoxy-3-methylphenyl)cyclohexyl)methyl)-4-(N-methylacetamido) cyclohexanecarboxamide]
COc1ccc([C@H]2CC[C@H](CN(c3cccc(-c4cnc(C5CC5)s4)c3)C(=O)[C@H]3CC[C@H](NS(C)(=O)=O)CC3)CC2)cc1C [Compound 25.11, trans-N-(3-(2-Cyclopropylthiazol-5-yl)phenyl)-N-((trans-4-(4-methoxy-3-methylphenyl)cyclohexyl)methyl)-4-(methylsulfonamido) cyclohexanecarboxamide]
COCC(=O)N[C@H]1CC[C@H](C(=O)N(C[C@H]2CC[C@H](c3ccc(OC)c(C)c3)CC2)c2cccc(-c3cnc(C4CC4)s3)c2)CC1 [Compound 25.12, trans-N-(3-(2-Cyclopropylthiazol-5-yl)phenyl)-N-((trans-4-(4-methoxy-3-methylphenyl)cyclohexyl)methyl)-4-(2-methoxyacetamido) cyclohexanecarboxamide]
COc1ccc([C@H]2CC[C@H](CN(c3cccc(-c4cnc(C5CC5)s4)c3)C(=O)[C@H]3CC[C@H](NC(=O)COC(C)=O)CC3)CC2)cc1C [Compound 25.13, 2-((trans-4-((3-(2-Cyclopropylthiazol-5-yl)phenyl)((trans-4-(4-methoxy-3-methylphenyl)cyclohexyl)methyl)carbamoyl)cyclohexyl)amino)-2-oxoethyl acetate]
COc1ccc([C@H]2CC[C@H](CN(c3cccc(-c4cnc(C5CC5)s4)c3)C(=O)[C@H]3CC[C@H](NC(=O)CO)CC3)CC2)cc1C [Compound 25.14, trans-N-(3-(2-Cyclopropylthiazol-5-yl)phenyl)-4-(2-hydroxyacetamido)-N-((trans-4-(4-methoxy-3-methylphenyl)cyclohexyl)methyl) cyclohexanecarboxamide]
CNC(=O)OCC(=O)N[C@H]1CC[C@H](C(=O)N(C[C@H]2CC[C@H](c3ccc(OC)c(C)c3)CC2)c2cccc(-c3cnc(C4CC4)s3)c2)CC1 [Compound 25.15, 2-((trans-4-((3-(2-Cyclopropylthiazol-5-yl)phenyl)((trans-4-(4-methoxy-3-methylphenyl)cyclohexyl)methyl)carbamoyl)cyclohexyl)amino)-2-oxoethyl methylcarbamate]
CCCC(=O)N[C@H]1CC[C@H](C(=O)N(C[C@H]2CC[C@H](c3ccc(OC)c(C)c3)CC2)c2cccc(-c3cnc(C4CC4)s3)c2)CC1 [Compound 25.16, trans-4-Butyramido-N-(3-(2-cyclopropylthiazol-5-yl)phenyl)-N-((trans-4-(4-methoxy-3-methylphenyl)cyclohexyl)methyl) cyclo hexanecarboxamide]
CCCCC(=O)N[C@H]1CC[C@H](C(=O)N(C[C@H]2CC[C@H](c3ccc(OC)c(C)c3)CC2)c2cccc(-c3cnc(C4CC4)s3)c2)CC1 [Compound 25.17, trans-N-(3-(2-Cyclopropylthiazol-5-yl)phenyl)-N-((trans-4-(4-methoxy-3-methylphenyl)cyclohexyl)methyl)-4-pentanamidocyclohexanecarboxamide]
COc1ccc([C@H]2CC[C@H](CN(c3cccc(-c4cnc(C5CC5)s4)c3)C(=O)[C@H]3CC[C@H](NC(=O)CC(C)C)CC3)CC2)cc1C [Compound 25.18, trans-N-(3-(2-Cyclopropylthiazol-5-yl)phenyl)-N-((trans-4-(4-methoxy-3-methylphenyl)cyclohexyl)methyl)-4-(3-methylbutanamido) cyclohexanecarboxamide]
COC(=O)N[C@H]1CC[C@H](C(=O)N(C[C@H]2CC[C@H](c3ccc(OC)c(C)c3)CC2)c2cccc(-c3cnn(C4CC4)c3)c2)CC1 [Compound 26, Methyl (trans-4-((3-(1-cyclopropyl-1H-pyrazol-4-yl)phenyl)((trans-4-(4-methoxy-3-methylphenyl)cyclohexyl)methyl)carbamoyl)cyclohexyl)carbamate]
COc1ccc([C@H]2CC[C@H](CN(c3cccc(-c4cnn(C5CC5)c4)c3)C(=O)[C@H]3CC[C@H](NC(C)=O)CC3)CC2)cc1C [Compound 26.01, trans-4-Acetamido-N-(3-(1-cyclopropyl-1H-pyrazol-4-yl)phenyl)-N-((trans-4-(4-methoxy-3-methylphenyl)cyclohexyl)methyl)cyclohexanecarboxamide]
COc1ccc([C@H]2CC[C@H](CN(c3cccc(-c4cnn(C5CC5)c4)c3)C(=O)[C@H]3CC[C@H](NS(C)(=O)=O)CC3)CC2)cc1C [Compound 26.02, trans-N-(3-(1-Cyclopropyl-1H-pyrazol-4-yl)phenyl)-N-((trans-4-(4-methoxy-3-methylphenyl)cyclohexyl)methyl)-4-(methylsulfonamido) cyclohexanecarboxamide]
COc1ccc([C@H]2CC[C@H](CN(c3cccc(-c4cnn(C5CC5)c4)c3)C(=O)[C@H]3CC[C@H](NC(=O)CO)CC3)CC2)cc1C [Compound 26.03, trans-N-(3-(1-Cyclopropyl-1H-pyrazol-4-yl)phenyl)-4-(2-hydroxyacetamido)-N-((trans-4-(4-methoxy-3-methylphenyl)cyclohexyl)methyl) cyclohexanecarboxamide]
